Assays:
human orexin-1 receptor = human orexin-1 receptor (Homo sapiens (Human), UniProt O43613); assay: In vitro assay: intracellular calcium measurements (FLIPR), antagonistic activity; format: cell-based; settings: CHO cells, 3 nM orexin-A, compound incubation 120 min; marked values are geometric means of n = 2-6; read-out: IC50 OX1
human orexin-2 receptor = human orexin-2 receptor (Homo sapiens (Human), UniProt O43614); assay: as above; format: cell-based; settings: CHO cells, 3 nM orexin-A, compound incubation 120 min; marked values are geometric means of n = 2-6; read-out: IC50 OX2
Sequence of human orexin-2 receptor (O43614 whole entry): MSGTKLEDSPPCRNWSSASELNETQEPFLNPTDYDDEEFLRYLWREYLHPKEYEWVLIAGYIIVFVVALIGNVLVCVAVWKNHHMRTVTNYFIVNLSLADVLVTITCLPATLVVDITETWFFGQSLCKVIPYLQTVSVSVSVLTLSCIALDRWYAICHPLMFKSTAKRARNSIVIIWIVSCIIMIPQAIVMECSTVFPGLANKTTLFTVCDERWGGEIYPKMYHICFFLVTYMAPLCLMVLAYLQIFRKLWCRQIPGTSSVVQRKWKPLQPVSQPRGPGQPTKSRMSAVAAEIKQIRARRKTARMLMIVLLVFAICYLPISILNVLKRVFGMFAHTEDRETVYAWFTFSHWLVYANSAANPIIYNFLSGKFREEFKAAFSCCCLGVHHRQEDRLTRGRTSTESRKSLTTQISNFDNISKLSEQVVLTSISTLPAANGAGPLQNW

Sequence of human orexin-1 receptor (O43613 whole entry): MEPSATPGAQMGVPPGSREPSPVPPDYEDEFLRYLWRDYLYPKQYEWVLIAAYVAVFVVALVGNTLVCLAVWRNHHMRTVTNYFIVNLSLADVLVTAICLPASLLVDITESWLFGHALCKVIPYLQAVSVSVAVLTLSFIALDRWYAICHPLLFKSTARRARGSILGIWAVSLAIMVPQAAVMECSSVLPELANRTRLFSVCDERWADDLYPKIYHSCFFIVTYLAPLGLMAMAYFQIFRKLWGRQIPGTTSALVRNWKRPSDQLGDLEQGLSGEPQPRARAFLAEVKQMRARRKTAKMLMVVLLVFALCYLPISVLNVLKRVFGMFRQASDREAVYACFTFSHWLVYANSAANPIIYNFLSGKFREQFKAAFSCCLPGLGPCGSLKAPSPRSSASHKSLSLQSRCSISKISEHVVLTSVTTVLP

Compound COc1cccc(OC)c1C1CCCC(=O)N1Cc1cccc(-c2ccc(F)cc2)n1 (stereo not drawn) [Example 6, 6-(2,6-dimethoxyphenyl)-1-((6-(4-fluorophenyl)pyridin-2-yl)methyl)piperidin-2-one] has an IC50 (human orexin-1 receptor) of 119 nM and an IC50 (human orexin-2 receptor) of 142 nM.

Work on COc1cccc(OC)c1C1CCCC(=O)N1Cc1cccc(-c2cccnc2)c1 (stereo not drawn) [Example 7, 6-(2,6-dimethoxyphenyl)-1-(3-(pyridin-3-yl)benzyl)piperidin-2-one] yielded an IC50 (human orexin-1 receptor) of 71 nM and an IC50 (human orexin-2 receptor) of 55 nM.

With COc1cccc(OC)c1C1CCCC(=O)N1Cc1cncc(-c2ccccc2)c1 (stereo not drawn) [Example 8, 6-(2,6-dimethoxyphenyl)-1-((5-phenylpyridin-3-yl)methyl)piperidin-2-one] the IC50 (human orexin-1 receptor) was 1700 nM and the IC50 (human orexin-2 receptor) was 700 nM.

Compound COc1cccc(OC)c1C1CCCC(=O)N1Cc1cccc(-c2ccncc2)c1 (stereo not drawn) [Example 9, 6-(2,6-dimethoxyphenyl)-1-(3-(pyridin-4-yl)benzyl)piperidin-2-one] has an IC50 (human orexin-1 receptor) of 29 nM and an IC50 (human orexin-2 receptor) of 64 nM.

Compound COc1cccc(OC)c1C1CCCC(=O)N1Cc1cccc(-c2ccccn2)c1 (stereo not drawn) [Example 10, 6-(2,6-dimethoxyphenyl)-1-(3-(pyridin-2-yl)benzyl)piperidin-2-one] has an IC50 (human orexin-1 receptor) of 9 nM and an IC50 (human orexin-2 receptor) of 8 nM.

With COc1cccc(OC)c1C1CCCC(=O)N1Cc1cccc(-c2ccccc2)n1 (stereo not drawn) [Example 11, 6-(2,6-dimethoxyphenyl)-1-((6-phenylpyridin-2-yl)methyl)piperidin-2-one] the IC50 (human orexin-1 receptor) was 34 nM and the IC50 (human orexin-2 receptor) was 43 nM.

COc1cccc(OC)c1C1CCCC(=O)N1Cc1ccnc(-c2ccccc2)c1 (stereo not drawn) [Example 12, 6-(2,6-dimethoxyphenyl)-1-((2-phenylpyridin-4-yl)methyl)piperidin-2-one] gave an IC50 (human orexin-1 receptor) of 25 nM and an IC50 (human orexin-2 receptor) of 34 nM.

COc1cccc(OC)c1C1CCCC(=O)N1Cc1cccc(N2CCCCC2)c1 (stereo not drawn) [Example 13, 6-(2,6-dimethoxyphenyl)-1-(3-(piperidin-1-yl)benzyl)piperidin-2-one] gave an IC50 (human orexin-1 receptor) of 22 nM and an IC50 (human orexin-2 receptor) of 46 nM.

For COc1cccc(OC)c1C1CCCC(=O)N1Cc1cccc(-c2nccs2)c1 (stereo not drawn) [Example 14, 6-(2,6-dimethoxyphenyl)-1-(3-(thiazol-2-yl)benzyl)piperidin-2-one], the IC50 (human orexin-1 receptor) was 4 nM and the IC50 (human orexin-2 receptor) was 4 nM.

COc1cccc(OC)c1C1CCCC(=O)N1Cc1cccc2ccccc12 (stereo not drawn) [Example 15, 6-(2,6-dimethoxyphenyl)-1-(naphthalen-1-ylmethyl)piperidin-2-one] showed an IC50 (human orexin-1 receptor) of 210 nM and an IC50 (human orexin-2 receptor) of 23 nM.

COc1cccc(OC)c1C1CCCC(=O)N1Cc1cccc(-c2csc(C)n2)c1 (stereo not drawn) [Example 16, 6-(2,6-dimethoxyphenyl)-1-(3-(2-methylthiazol-4-yl)benzyl)piperidin-2-one] gave an IC50 (human orexin-1 receptor) of 3 nM and an IC50 (human orexin-2 receptor) of 2 nM.

Work on COc1cccc(OC)c1C1CCCC(=O)N1Cc1cccc(N2CCOCC2)c1 (stereo not drawn) [Example 17, 6-(2,6-dimethoxyphenyl)-1-(3-morpholinobenzyl)piperidin-2-one] yielded an IC50 (human orexin-1 receptor) of 210 nM and an IC50 (human orexin-2 receptor) of 661 nM.

For COc1cccc(OC)c1C1CCCC(=O)N1Cc1ccc(-c2ccccc2)s1 (stereo not drawn) [Example 18, 6-(2,6-dimethoxyphenyl)-1-((5-phenylthiophen-2-yl)methyl)piperidin-2-one], the IC50 (human orexin-1 receptor) was 117 nM and the IC50 (human orexin-2 receptor) was 38 nM.

COc1cccc(OC)c1C1CCCC(=O)N1Cc1cccc(-n2cccn2)c1 (stereo not drawn) [Example 19, 1-(3-(1H-pyrazol-1-yl)benzyl)-6-(2,6-dimethoxyphenyl)piperidin-2-one] was tested, and the IC50 (human orexin-1 receptor) was 25 nM and the IC50 (human orexin-2 receptor) was 26 nM.

In the case of COc1cccc(OC)c1C1CCCC(=O)N1Cc1ccc2nccnc2c1 (stereo not drawn) [Example 20, 6-(2,6-dimethoxyphenyl)-1-(quinoxalin-6-ylmethyl)piperidin-2-one], the IC50 (human orexin-1 receptor) is reported as 952 nM and the IC50 (human orexin-2 receptor) is reported as 864 nM.

Compound COc1cccc(OC)c1C1CCCC(=O)N1Cc1cnc(-c2ccccc2)s1 (stereo not drawn) [Example 21, 6-(2,6-dimethoxyphenyl)-1-((2-phenylthiazol-5-yl)methyl)piperidin-2-one] has an IC50 (human orexin-1 receptor) of 951 nM and an IC50 (human orexin-2 receptor) of 366 nM.

COc1cccc(OC)c1C1CCCC(=O)N1Cc1cc(-c2ccccc2)ccn1 (stereo not drawn) [Example 22, 6-(2,6-dimethoxyphenyl)-1-((4-phenylpyridin-2-yl)methyl)piperidin-2-one] was tested, and the IC50 (human orexin-1 receptor) was 166 nM and the IC50 (human orexin-2 receptor) was 131 nM.

COc1cccc(OC)c1C1CCCC(=O)N1Cc1cccc(-n2cncn2)c1 (stereo not drawn) [Example 23, 1-(3-(1H-1,2,4-triazol-1-yl)benzyl)-6-(2,6-dimethoxyphenyl)piperidin-2-one] gave an IC50 (human orexin-1 receptor) of 312 nM and an IC50 (human orexin-2 receptor) of 471 nM.

COc1cccc(OC)c1C1CCCC(=O)N1Cc1cccc(N2CCCC2)c1 (stereo not drawn) [Example 24, 6-(2,6-dimethoxyphenyl)-1-(3-(pyrrolidin-1-yl)benzyl)piperidin-2-one] was tested, and the IC50 (human orexin-1 receptor) was 22 nM and the IC50 (human orexin-2 receptor) was 31 nM.

For COc1cccc(OC)c1C1CCCC(=O)N1Cc1cc(-c2ccccc2)on1 (stereo not drawn) [Example 25, 6-(2,6-dimethoxyphenyl)-1-((5-phenylisoxazol-3-yl)methyl)piperidin-2-one], the IC50 (human orexin-1 receptor) was 688 nM and the IC50 (human orexin-2 receptor) was 902 nM.

In the case of COc1cccc(OC)c1C1CCCC(=O)N1Cc1cnn(-c2ccccc2)c1 (stereo not drawn) [Example 26, 6-(2,6-dimethoxyphenyl)-1-((1-phenyl-1H-pyrazol-4-yl)methyl)piperidin-2-one], the IC50 (human orexin-1 receptor) is reported as 167 nM and the IC50 (human orexin-2 receptor) is reported as 115 nM.

Compound COc1cccc(OC)c1C1CCCC(=O)N1Cc1cccc(-n2ccnc2)c1 (stereo not drawn) [Example 27, 1-(3-(1H-imidazol-1-yl)benzyl)-6-(2,6-dimethoxyphenyl)piperidin-2-one] has an IC50 (human orexin-1 receptor) of 136 nM and an IC50 (human orexin-2 receptor) of 181 nM.

Work on COc1cccc(OC)c1C1CCCC(=O)N1Cc1cccc(N2CCCCC2)n1 (stereo not drawn) [Example 28, 6-(2,6-dimethoxyphenyl)-1-((6-(piperidin-1-yl)pyridin-2-yl)methyl)piperidin-2-one] yielded an IC50 (human orexin-1 receptor) of 21 nM and an IC50 (human orexin-2 receptor) of 11 nM.

COc1cccc(OC)c1C1CCCC(=O)N1Cc1cccc(-c2ncccn2)c1 (stereo not drawn) [Example 29, 6-(2,6-dimethoxyphenyl)-1-(3-(pyrimidin-2-yl)benzyl)piperidin-2-one] gave an IC50 (human orexin-1 receptor) of 14 nM and an IC50 (human orexin-2 receptor) of 28 nM.

With COc1cccc(OC)c1C1CCCC(=O)N1Cc1ccc2oc3ccccc3c2c1 (stereo not drawn) [Example 30, 1-(dibenzo[b,d]furan-2-ylmethyl)-6-(2,6-dimethoxyphenyl)piperidin-2-one] the IC50 (human orexin-1 receptor) was 2 nM and the IC50 (human orexin-2 receptor) was 4 nM.

Work on COc1cccc(OC)c1C1CCCC(=O)N1Cc1nc2ccccc2s1 (stereo not drawn) [Example 31, 1-(benzo[d]thiazol-2-ylmethyl)-6-(2,6-dimethoxyphenyl)piperidin-2-one] yielded an IC50 (human orexin-1 receptor) of 941 nM and an IC50 (human orexin-2 receptor) of 858 nM.

COc1cccc(OC)c1C1CCCC(=O)N1Cc1ccc2c(c1)c1ccccc1n2C (stereo not drawn) [Example 32, 6-(2,6-dimethoxyphenyl)-1-((9-methyl-9H-carbazol-3-yl)methyl)piperidin-2-one] was tested, and the IC50 (human orexin-1 receptor) was 50 nM and the IC50 (human orexin-2 receptor) was 132 nM.

In the case of COc1cccc(OC)c1C1CCCC(=O)N1Cc1cccc(-c2noc(C)n2)c1 (stereo not drawn) [Example 33, 6-(2,6-dimethoxyphenyl)-1-(3-(5-methyl-1,2,4-oxadiazol-3-yl)benzyl)piperidin-2-one], the IC50 (human orexin-1 receptor) is reported as 39 nM and the IC50 (human orexin-2 receptor) is reported as 50 nM.

COc1cccc(OC)c1C1CCCC(=O)N1Cc1ccnc(N2CCCC2)c1 (stereo not drawn) [Example 34, 6-(2,6-dimethoxyphenyl)-1-((2-(pyrrolidin-1-yl)pyridin-4-yl)methyl)piperidin-2-one] showed an IC50 (human orexin-1 receptor) of 1050 nM and an IC50 (human orexin-2 receptor) of 2060 nM.

With COc1cccc(OC)c1C1CCCC(=O)N1Cc1csc(-c2ccccc2)n1 (stereo not drawn) [Example 35, 6-(2,6-dimethoxyphenyl)-1-((2-phenylthiazol-4-yl)methyl)piperidin-2-one] the IC50 (human orexin-1 receptor) was 28 nM and the IC50 (human orexin-2 receptor) was 5 nM.
